Test system: T47D
Assay: Effective concentration against human breast cancer T47D cell line apoptosis inducing activity was measured by using cell and caspase-based HTS assay
Format: functional
Conditions: not given

EC50	SMILES
130 nM	COc1cc(C2C(C#N)=C(N)Oc3cc(O)ccc32)cc(Br)c1OC (stereo not drawn)
110 nM	CCCCNc1ccc2c(c1)OC(N)=C(C#N)C2c1cccc(OC)c1 (stereo not drawn)
390 nM	N#CC1=C(N)Oc2c(ccc(N)c2N)C1c1cccc(C#N)c1 (stereo not drawn)
360 nM	COc1ccc2c(c1)OC(N)=C(C#N)C2c1ccccc1 (stereo not drawn)
26 nM	COc1ccc2c(c1)OC(N)=C(C#N)C2c1cc(OC)c(OC)c(OC)c1 (stereo not drawn)
310 nM	COc1cc(C2C(C#N)=C(N)Oc3c2ccc(N)c3C)cc2c1OCO2 (stereo not drawn)
47 nM	COc1cncc(C2C(C#N)=C(N)Oc3cc(OC)ccc32)c1 (stereo not drawn)
15 nM	COc1cc(OC)cc(C2C(C#N)=C(N)Oc3cc(OC)ccc32)c1 (stereo not drawn)
52 nM	COc1ccc2c(c1)OC(N)=C(C#N)C2c1cccc(Br)c1 (stereo not drawn)
23 nM	COc1cc(C2C(C#N)=C(N)Oc3c2ccc(N)c3N)cc(Br)c1O (stereo not drawn)
390 nM	N#CC1=C(N)Oc2c(ccc(N)c2N)C1c1cccc([N+](=O)[O-])c1 (stereo not drawn)
150 nM	N#CC1=C(N)Oc2c(ccc(N)c2N)C1c1cccc(Br)c1 (stereo not drawn)
17 nM	COc1ccc2c(c1)OC(N)=C(C#N)C2c1cc(Br)c(OC)c(OC)c1 (stereo not drawn)
140 nM	COc1cc(C2C(C#N)=C(N)Oc3cc(Br)ccc32)cc(Br)c1OC (stereo not drawn)
110 nM	CCCCNc1ccc2c(c1)OC(N)=C(C#N)C2c1cccc([N+](=O)[O-])c1 (stereo not drawn)
49 nM	COc1cc(C2C(C#N)=C(N)Oc3c2ccc(N)c3N)cc(I)c1OC (stereo not drawn)
52 nM	COc1cccc(C2C(C#N)=C(N)Oc3cc(OC)ccc32)c1 (stereo not drawn)
64 nM	CCOc1ccc2c(c1)OC(N)=C(C#N)C2c1cc(Br)c(OC)c(OC)c1 (stereo not drawn)
26 nM	COc1cc(C2C(C#N)=C(N)Oc3c2ccc(N)c3C)cc(Br)c1OC (stereo not drawn)
170 nM	COc1ccc2c(c1)OC(N)=C(C#N)C2c1cccnc1 (stereo not drawn)
61 nM	COc1cc(C2C(C#N)=C(N)Oc3c2ccc(O)c3N)cc(Br)c1OC (stereo not drawn)
92 nM	COc1cc(OC)cc(C2C(C#N)=C(N)Oc3c2ccc(N)c3N)c1 (stereo not drawn)

SMILES	EC50
COc1cc(C2C(C#N)=C(N)Oc3c2ccc(N)c3N)cc(Br)c1OC (stereo not drawn)	34 nM

Test system: NCI-H1299
Assay: Effective concentration against human non-small cell lung cancer H1299 cells inducing apoptosis, activity was measured by cell and caspase-based HTS assay
Format: functional
Conditions: not given

EC50	SMILES
210 nM	COc1cc(C2C(C#N)=C(N)Oc3cc(O)ccc32)cc(Br)c1OC (stereo not drawn)
190 nM	CCCCNc1ccc2c(c1)OC(N)=C(C#N)C2c1cccc(OC)c1 (stereo not drawn)
460 nM	N#CC1=C(N)Oc2c(ccc(N)c2N)C1c1cccc(C#N)c1 (stereo not drawn)
520 nM	COc1ccc2c(c1)OC(N)=C(C#N)C2c1ccccc1 (stereo not drawn)
57 nM	COc1ccc2c(c1)OC(N)=C(C#N)C2c1cc(OC)c(OC)c(OC)c1 (stereo not drawn)
100 nM	COc1cncc(C2C(C#N)=C(N)Oc3cc(OC)ccc32)c1 (stereo not drawn)
32 nM	COc1cc(OC)cc(C2C(C#N)=C(N)Oc3cc(OC)ccc32)c1 (stereo not drawn)
95 nM	COc1ccc2c(c1)OC(N)=C(C#N)C2c1cccc(Br)c1 (stereo not drawn)
62 nM	COc1cc(C2C(C#N)=C(N)Oc3c2ccc(N)c3N)cc(Br)c1O (stereo not drawn)
420 nM	N#CC1=C(N)Oc2c(ccc(N)c2N)C1c1cccc([N+](=O)[O-])c1 (stereo not drawn)
230 nM	N#CC1=C(N)Oc2c(ccc(N)c2N)C1c1cccc(Br)c1 (stereo not drawn)
280 nM	COc1cc(C2C(C#N)=C(N)Oc3cc(Br)ccc32)cc(Br)c1OC (stereo not drawn)
170 nM	CCCCNc1ccc2c(c1)OC(N)=C(C#N)C2c1cccc([N+](=O)[O-])c1 (stereo not drawn)
100 nM	COc1cc(C2C(C#N)=C(N)Oc3c2ccc(N)c3N)cc(I)c1OC (stereo not drawn)
89 nM	COc1cccc(C2C(C#N)=C(N)Oc3cc(OC)ccc32)c1 (stereo not drawn)
92 nM	CCOc1ccc2c(c1)OC(N)=C(C#N)C2c1cc(Br)c(OC)c(OC)c1 (stereo not drawn)
53 nM	COc1cc(C2C(C#N)=C(N)Oc3c2ccc(N)c3C)cc(Br)c1OC (stereo not drawn)
290 nM	COc1ccc2c(c1)OC(N)=C(C#N)C2c1cccnc1 (stereo not drawn)
180 nM	COc1cc(C2C(C#N)=C(N)Oc3c2ccc(O)c3N)cc(Br)c1OC (stereo not drawn)
190 nM	COc1cc(OC)cc(C2C(C#N)=C(N)Oc3c2ccc(N)c3N)c1 (stereo not drawn)

SMILES	EC50
COc1cc(C2C(C#N)=C(N)Oc3c2ccc(N)c3N)cc(Br)c1OC (stereo not drawn)	81 nM

Test system: NCI-H1299
Assay: Effective concentration against human non-small cell lung cancer H1299 cells inducing apoptosis activity was measured by using cell and caspase-based HTS assay
Format: functional
Conditions: not given

EC50	SMILES
770 nM	COc1cc(C2C(C#N)=C(N)Oc3c2ccc(N)c3C)cc2c1OCO2 (stereo not drawn)
34 nM	COc1ccc2c(c1)OC(N)=C(C#N)C2c1cc(Br)c(OC)c(OC)c1 (stereo not drawn)

Test system: T47D
Assay: Ratio of inhibition of cell proliferation activity to that of caspase activation inducing apoptosis activity in human breast cancer T47D cell line
Format: functional
Conditions: not given

GI50/EC50	SMILES
6.1	COc1cc(C2C(C#N)=C(N)Oc3cc(O)ccc32)cc(Br)c1OC (stereo not drawn)
1.4	COc1cncc(C2C(C#N)=C(N)Oc3cc(OC)ccc32)c1 (stereo not drawn)
0.47	COc1ccc2c(c1)OC(N)=C(C#N)C2c1cc(Br)c(OC)c(OC)c1 (stereo not drawn)
2	COc1cc(C2C(C#N)=C(N)Oc3c2ccc(O)c3N)cc(Br)c1OC (stereo not drawn)

SMILES	GI50/EC50
COc1cc(C2C(C#N)=C(N)Oc3c2ccc(N)c3N)cc(Br)c1OC (stereo not drawn)	4.4

Test system: T47D
Assay: Growth inhibitory activity against human breast cancer T47D cell line
Format: functional
Conditions: not given

GI50	SMILES
800 nM	COc1cc(C2C(C#N)=C(N)Oc3cc(O)ccc32)cc(Br)c1OC (stereo not drawn)
65 nM	COc1cncc(C2C(C#N)=C(N)Oc3cc(OC)ccc32)c1 (stereo not drawn)
8 nM	COc1ccc2c(c1)OC(N)=C(C#N)C2c1cc(Br)c(OC)c(OC)c1 (stereo not drawn)
120 nM	COc1cc(C2C(C#N)=C(N)Oc3c2ccc(O)c3N)cc(Br)c1OC (stereo not drawn)

SMILES	GI50
COc1cc(C2C(C#N)=C(N)Oc3c2ccc(N)c3N)cc(Br)c1OC (stereo not drawn)	150 nM

Test system: NCI-H1299
Assay: Growth inhibitory activity against human non-small cell lung cancer H1299 cells
Format: functional
Conditions: not given

GI50	SMILES
860 nM	COc1cc(C2C(C#N)=C(N)Oc3c2ccc(N)c3C)cc2c1OCO2 (stereo not drawn)

Same assay, conditions: Homo sapiens, NCI-H1299

GI50	SMILES
190 nM	COc1cc(C2C(C#N)=C(N)Oc3cc(O)ccc32)cc(Br)c1OC (stereo not drawn)
490 nM	COc1cc(C2C(C#N)=C(N)Oc3c2ccc(N)c3C)cc2c1OCO2 (stereo not drawn)
72 nM	COc1cncc(C2C(C#N)=C(N)Oc3cc(OC)ccc32)c1 (stereo not drawn)
9 nM	COc1ccc2c(c1)OC(N)=C(C#N)C2c1cc(Br)c(OC)c(OC)c1 (stereo not drawn)
110 nM	COc1cc(C2C(C#N)=C(N)Oc3c2ccc(O)c3N)cc(Br)c1OC (stereo not drawn)

SMILES	GI50
COc1cc(C2C(C#N)=C(N)Oc3c2ccc(N)c3N)cc(Br)c1OC (stereo not drawn)	31 nM

Source: ChEMBL document CHEMBL1140397, “Discovery of 4-aryl-4H-chromenes as a new series of apoptosis inducers using a cell- and caspase-based high-throughput screening assay. 2. Structure-activity relationships of the 7- and 5-, 6-, 8-positions” (Bioorg Med Chem Lett, 2005)
